Target: MAPK14 (human) (UniProt Q16539)
Assay: Inhibition of MAPK14 Kinase Activity

MAPK14 (human), sequence (Q16539 whole entry, looked up): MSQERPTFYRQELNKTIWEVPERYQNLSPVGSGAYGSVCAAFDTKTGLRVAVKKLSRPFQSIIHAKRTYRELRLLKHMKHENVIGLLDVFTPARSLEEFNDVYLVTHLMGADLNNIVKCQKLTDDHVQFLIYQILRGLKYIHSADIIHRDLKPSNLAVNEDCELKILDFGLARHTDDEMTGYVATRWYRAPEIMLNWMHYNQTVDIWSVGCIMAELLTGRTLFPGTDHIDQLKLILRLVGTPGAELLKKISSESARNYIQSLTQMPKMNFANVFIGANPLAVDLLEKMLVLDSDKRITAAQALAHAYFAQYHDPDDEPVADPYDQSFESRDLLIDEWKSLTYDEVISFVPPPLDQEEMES

| IC50 | Structure (SMILES) |
| --- | --- |
| < 10 µM | Cc1c(F)cc(C(=O)NC2CC2)cc1-c1ccc2c(cnn2-c2cc(=O)[nH]cn2)c1 |
| < 10 µM | Cc1c(F)cc(C(=O)NC2CC2)cc1-c1ccc2c(cnn2Cc2ccc(F)cc2)c1 |
| < 10 µM | Cc1c(F)cc(C(=O)NC2CC2)cc1-c1ccc2c(cnn2-c2ccc(NCCN(C)C)cc2)c1 |
| < 10 µM | Cc1c(F)cc(C(=O)Nc2ncccn2)cc1-c1ccc2c(cnn2-c2ccccc2)c1 |
| < 10 µM | Cc1c(F)cc(C(=O)NC2CC2)cc1-c1ccc2c(cnn2-c2ccc(Br)cc2)c1 |
| < 10 µM | Cc1c(F)cc(C(=O)NC2CC2)cc1-c1ccc2c(ccn2-c2cccc(C#N)c2)c1 |
| < 10 µM | Cc1c(F)cc(C(=O)Nc2cc[nH]n2)cc1-c1ccc2c(-c3ccc(F)cc3)n[nH]c2c1 |
| < 10 µM | Cc1c(F)cc(C(=O)NC2CC2)cc1-c1ccc2c(cnn2-c2ccc(NCC3CCCO3)cc2)c1 (configuration not stated) |
| < 10 µM | Cc1c(F)cc(C(=O)NC2CC2)cc1-c1ccc2c(-c3ccc(O)cc3)noc2c1 |
| < 10 µM | CCNC(=O)c1cc(F)c(C)c(-c2ccc3c(-c4cccnc4OC)n[nH]c3c2)c1 |
| < 10 µM | Cc1c(F)cc(C(=O)NC2CCCC2)cc1-c1ccc2c(cnn2-c2ccccc2)c1 |
| < 10 µM | COc1ccc(C2N=Nc3cc(-c4cc(C(=O)NC5CC5)ccc4C)ccc32)cc1 (configuration not stated) |
| < 10 µM | CCNC(=O)c1ccc(C)c(-c2ccc3c(-c4ccc(S(C)(=O)=O)cc4)n[nH]c3c2)c1 |
| < 10 µM | Cc1c(F)cc(C(=O)NC2CC2)cc1-c1ccc2c(cnn2-c2ccc(NCC(O)CO)cc2)c1 (configuration not stated) |
| < 10 µM | Cc1c(F)cc(C(=O)NC2CCC2)cc1-c1ccc2c(cnn2-c2ccccc2)c1 |
| < 10 µM | Cc1c(F)cc(C(=O)NC2CC2)cc1-c1ccc2c(cnn2Cc2ccccn2)c1 |
| < 10 µM | CCn1nccc1NC(=O)c1cc(F)c(C)c(-c2ccc3c(-c4ccc(F)cc4)n[nH]c3c2)c1 |
| < 10 µM | COCCNc1ccc(-n2ncc3cc(-c4cc(C(=O)NC5CC5)cc(F)c4C)ccc32)cc1 |
| < 10 µM | Cc1c(F)cc(C(=O)NC2CC2)cc1-c1ccc2c(cnn2-c2ccc(NCC3CCCCC3)cc2)c1 |
| < 10 µM | Cc1c(F)cc(C(=O)Nc2cccnn2)cc1-c1ccc2c(cnn2-c2ccccc2)c1 |
| < 10 µM | Cc1c(F)cc(C(=O)NC2CC2)cc1-c1ccc2c(ccn2-c2ccccn2)c1 |

| IC50 | Structure (SMILES) |
| --- | --- |
| < 10 µM | Cc1cc(F)ccc1-n1ncc2cc(-c3cc(C(=O)NC4CC4)cc(F)c3C)ccc21 |
| < 10 µM | Cc1c(F)cc(C(=O)NC2CC2)cc1-c1ccc2c(cnn2-c2ccc(N3CCOCC3)cc2)c1 |
| < 10 µM | Cc1ccc(C(=O)Nc2c(C)cnn2C)cc1-c1ccc2c(-c3ccc(F)cc3)n[nH]c2c1 |
| < 10 µM | CCNC(=O)c1ccc(C)c(-c2ccc3c(-c4cnccn4)n[nH]c3c2)c1 |
| < 10 µM | Cc1c(F)cc(C(=O)NC2CC2)cc1-c1ccc2c(cnn2-c2ccccc2)c1 |
| < 10 µM | Cc1c(F)cc(C(=O)NC2CC2)cc1-c1ccc2c(cnn2Cc2ccccc2)c1 |
| < 10 µM | Cc1c(F)cc(C(=O)NC2CC2)cc1-c1ccc2c(ccn2-c2ccc(C#N)cc2)c1 |
| < 10 µM | Cc1ccc(C(=O)Nc2ccc(F)cc2)cc1-c1ccc2c(cnn2-c2ccccc2)c1 |
| < 10 µM | CCNC(=O)c1cc(F)c(C)c(-c2ccc3c(-c4ccc(F)cc4OC)n[nH]c3c2)c1 |
| < 10 µM | Cc1c(F)cc(C(=O)NC2CC2)cc1-c1ccc2c(cnn2Cc2ccc[n+]([O-])c2)c1 |
| < 10 µM | Cc1ccc(C(=O)Nc2c(C)noc2C)cc1-c1ccc2c(-c3ccc(F)cc3)n[nH]c2c1 |
| < 10 µM | Cc1c(F)cc(C(=O)NC2CC2)cc1-c1ccc2c(cnn2-c2ccc(S(C)(=O)=O)cc2)c1 |
| < 10 µM | Cc1ccc(C(=O)NC2CC2)cc1-c1ccc2c(-c3ccc(F)cc3)n[nH]c2c1 |
| < 10 µM | CCNC(=O)c1cc(F)c(C)c(-c2ccc3c(-c4cnc(C)n4C)n[nH]c3c2)c1 |
| < 10 µM | Cc1ccc(C(=O)NC2CC2)cc1-c1ccc2c(cnn2-c2ccc(F)cc2)c1 |
| < 10 µM | Cc1c(F)cc(C(=O)NC2CC2)cc1-c1ccc2c(cnn2-c2ccc(F)cc2)c1 |
| < 10 µM | CCCNC(=O)c1cc(F)c(C)c(-c2ccc3c(cnn3-c3ccccc3)c2)c1 |
| < 10 µM | Cc1c(F)cc(C(=O)NC2CC2)cc1-c1ccc2c(cnn2-c2ccc(NC3CCOCC3)cc2)c1 |
| < 10 µM | Cc1c(F)cc(C(=O)Nc2cc[nH]n2)cc1-c1ccc2c(cnn2-c2ccccc2)c1 |
| < 10 µM | CCNC(=O)c1cc(F)c(C)c(-c2ccc3c(-c4ccnc(C)c4)n[nH]c3c2)c1 |
| < 10 µM | Cc1c(F)cc(C(=O)NC2CC2)cc1-c1ccc2c(cnn2Cc2cccnc2)c1 |

| IC50 | Structure (SMILES) |
| --- | --- |
| < 10 µM | Cc1cc(-n2ncc3cc(-c4cc(C(=O)NC5CC5)cc(F)c4C)ccc32)nc(C)n1 |
| < 10 µM | Cc1c(F)cc(C(=O)NC(C)C)cc1-c1ccc2c(cnn2-c2ccccc2)c1 |
| < 10 µM | CNC(=O)Cc1ccc(-n2ncc3cc(-c4cc(C(=O)NC5CC5)cc(F)c4C)ccc32)cc1 |
| < 10 µM | CCNC(=O)c1cc(F)c(C)c(-c2ccc3c(-c4ccc(C(F)(F)F)cc4)n[nH]c3c2)c1 |
| < 10 µM | CCNC(=O)c1ccc(-c2n[nH]c3cc(-c4cc(C(=O)NCC)ccc4C)ccc23)nc1 |
| < 10 µM | CCNC(=O)c1ccc(C)c(-c2ccc3c(-c4ccc(F)nc4)n[nH]c3c2)c1 |
| < 10 µM | CCNC(=O)c1ccc(C)c(-c2ccc3c(-c4ccc(N5CCOCC5)nc4)n[nH]c3c2)c1 |
| < 10 µM | Cc1ccc(C(=O)NC2CCC2)cc1-c1ccc2c(cnn2-c2ccc(F)cc2)c1 |
| < 10 µM | Cc1c(F)cc(C(=O)NC2CC2)cc1-c1ccc2c(ccn2-c2cccnc2)c1 |
| < 10 µM | Cc1c(F)cc(C(=O)NC2CC2)cc1-c1ccc2c(cnn2Cc2cccc[n+]2[O-])c1 |
| < 10 µM | Cc1c(F)cc(C(=O)NC2CC2)cc1-c1ccc2c(cnn2-c2ccc(C(F)(F)F)cc2)c1 |
| < 10 µM | Cc1c(F)cc(C(=O)Nc2ccnn2C)cc1-c1ccc2c(-c3ccc(F)cc3)n[nH]c2c1 |
| < 10 µM | Cc1cc(Cn2ncc3cc(-c4cc(C(=O)NC5CC5)cc(F)c4C)ccc32)no1 |
| < 10 µM | CCNC(=O)c1cc(F)c(C)c(-c2ccc3c(-c4cccc[n+]4[O-])n[nH]c3c2)c1 |
| < 10 µM | CCNC(=O)c1cc(F)c(C)c(-c2ccc3c(-c4ccc(Cl)cc4)n[nH]c3c2)c1 |
| < 10 µM | CCNC(=O)c1cc(F)c(C)c(-c2ccc3c(-c4ncccn4)n[nH]c3c2)c1 |
| < 10 µM | CCNC(=O)c1cc(F)c(C)c(-c2ccc3c(-c4c(C)noc4C)n[nH]c3c2)c1 |
| < 10 µM | CCNC(=O)c1ccc(C)c(-c2ccc3c(-c4ccc(OCC)cc4)n[nH]c3c2)c1 |
| < 10 µM | Cc1c(F)cc(C(=O)NCC2CC2)cc1-c1ccc2c(cnn2-c2ccccc2)c1 |
| < 10 µM | Cc1c(F)cc(C(=O)NC2CC2)cc1-c1ccc2c(cnn2-c2ccc(NCCCN(C)C)cc2)c1 |
| < 10 µM | Cc1c(F)cc(C(=O)Nc2ccc(F)cc2)cc1-c1ccc2c(cnn2-c2ccccc2)c1 |

| IC50 | Structure (SMILES) |
| --- | --- |
| < 10 µM | Cc1cccc(-n2ncc3cc(-c4cc(C(=O)NC5CC5)cc(F)c4C)ccc32)c1 |
| < 10 µM | CCNC(=O)c1cc(F)c(C)c(-c2ccc3c(-c4ccc(F)cc4C)n[nH]c3c2)c1 |
| < 10 µM | CCNC(=O)c1cc(F)c(C)c(-c2ccc3c(-c4ccc(OC)nc4)n[nH]c3c2)c1 |
| < 10 µM | CCNC(=O)c1ccc(C)c(-c2ccc3c(-c4ccc(F)cc4)n[nH]c3c2)c1 |
| < 10 µM | Cc1c(F)cc(C(=O)NC2CC2)cc1-c1ccc2c(cnn2Cc2cc[n+]([O-])cc2)c1 |
| < 10 µM | CCNC(=O)c1cc(F)c(C)c(-c2ccc3c(cnn3-c3ccccc3)c2)c1 |
| < 10 µM | Cc1c(F)cc(C(=O)NC2CC2)cc1-c1ccc2c(cnn2Cc2ccc(C(F)(F)F)cc2)c1 |
| < 10 µM | CCNC(=O)c1cc(F)c(C)c(-c2ccc3c(-c4ccccn4)n[nH]c3c2)c1 |
| < 10 µM | CCNC(=O)c1ccc(C)c(-c2ccc3c(-c4ccc(OC)cc4)n[nH]c3c2)c1 |
| < 10 µM | CCNC(=O)c1ccc(C)c(-c2ccc3c(-c4cncnc4)n[nH]c3c2)c1 |
| < 10 µM | Cc1c(F)cc(C(N)=O)cc1-c1ccc2c(cnn2-c2ccccc2)c1 |
| < 10 µM | Cc1cnn(C)c1NC(=O)c1cc(F)c(C)c(-c2ccc3c(-c4ccc(F)cc4)n[nH]c3c2)c1 |
| < 10 µM | CCNC(=O)c1cc(F)c(C)c(-c2ccc3c(-c4ccc(C)cc4)n[nH]c3c2)c1 |
| < 10 µM | CNC(=O)c1cc(F)c(C)c(-c2ccc3c(cnn3-c3ccccc3)c2)c1 |
| < 10 µM | Cc1c(F)cc(C(=O)NC2CC2)cc1-c1ccc2c(cnn2Cc2ccncc2)c1 |
| < 10 µM | CCNC(=O)c1cc(F)c(C)c(-c2ccc3c(-c4cccnc4)n[nH]c3c2)c1 |
| < 10 µM | COc1ccc(-c2noc3cc(-c4cc(C(=O)NC5CC5)cc(F)c4C)ccc23)cc1 |
| < 10 µM | CCNC(=O)c1ccc(C)c(-c2ccc3c(-c4cc(C)nn4C)n[nH]c3c2)c1 |
| < 10 µM | CCCCNC(=O)c1cc(F)c(C)c(-c2ccc3c(cnn3-c3ccccc3)c2)c1 |
